According to patent US11098038B2, “Imidazole-based anticancer agents and derivatives thereof, and methods of making and using same” (The University of Toledo, priority 2017, dated 2021):

How the values were obtained:
CCRF-CEM = experiment: NCI 60 screen, CCRF-CEM; assay type: cell-based; conditions: Homo sapiens, Leukemia
Procedure: (§1) The compounds synthesized were tested at the National Cancer Institute (NCI) for anti-proliferative activity in the 60 human tumor cell line assay.

HL-60(TB) = experiment: NCI 60 screen, HL-60(TB); assay type: cell-based; conditions: Homo sapiens, Leukemia
Procedure: as §1

MOLT-4 = experiment: NCI 60 screen, MOLT-4; assay type: cell-based; conditions: Homo sapiens, Leukemia
Procedure: as §1

RPMI-8226 = experiment: NCI 60 screen, RPMI-8226; assay type: cell-based; conditions: Homo sapiens, Leukemia
Procedure: as §1

SR = experiment: NCI 60 screen, SR; assay type: cell-based; conditions: Homo sapiens, Leukemia
Procedure: as §1

A549/ATCC = experiment: NCI 60 screen, A549/ATCC; assay type: cell-based; conditions: Homo sapiens, Non-Small Cell Lung
Procedure: as §1

EKVX = experiment: NCI 60 screen, EKVX; assay type: cell-based; conditions: Homo sapiens, Non-Small Cell Lung
Procedure: as §1

HOP-62 = experiment: NCI 60 screen, HOP-62; assay type: cell-based; conditions: Homo sapiens, Non-Small Cell Lung
Procedure: as §1

HOP-92 = experiment: NCI 60 screen, HOP-92; assay type: cell-based; conditions: Homo sapiens, Non-Small Cell Lung
Procedure: as §1

NCI-H226 = experiment: NCI 60 screen, NCI-H226; assay type: cell-based; conditions: Homo sapiens, Non-Small Cell Lung
Procedure: as §1

NCI-H23 = experiment: NCI 60 screen, NCI-H23; assay type: cell-based; conditions: Homo sapiens, Non-Small Cell Lung
Procedure: as §1

NCI-322M = experiment: NCI 60 screen, NCI-322M; assay type: cell-based; conditions: Homo sapiens, Non-Small Cell Lung
Procedure: as §1

NCI-460 = experiment: NCI 60 screen, NCI-460; assay type: cell-based; conditions: Homo sapiens, Non-Small Cell Lung
Procedure: as §1

NCI-H522 = experiment: NCI 60 screen, NCI-H522; assay type: cell-based; conditions: Homo sapiens, Non-Small Cell Lung
Procedure: as §1

COLO 205 = experiment: NCI 60 screen, COLO 205; assay type: cell-based; conditions: Homo sapiens, Colon
Procedure: as §1

HCC-2998 = experiment: NCI 60 screen, HCC-2998; assay type: cell-based; conditions: Homo sapiens, Colon
Procedure: as §1

HCT-116 = experiment: NCI 60 screen, HCT-116; assay type: cell-based; conditions: Homo sapiens, Colon
Procedure: as §1

HCT15 = experiment: NCI 60 screen, HCT15; assay type: cell-based; conditions: Homo sapiens, HCT-15, Colon
Procedure: as §1

HT29 = experiment: NCI 60 screen, HT29; assay type: cell-based; conditions: Homo sapiens, HT-29, Colon
Procedure: as §1

KM12 = experiment: NCI 60 screen, KM12; assay type: cell-based; conditions: Homo sapiens, Colon
Procedure: as §1

SW-620 = experiment: NCI 60 screen, SW-620; assay type: cell-based; conditions: Homo sapiens, Colon
Procedure: as §1

SF-268 = experiment: NCI 60 screen, SF-268; assay type: cell-based; conditions: Homo sapiens, CNS
Procedure: as §1

SF-295 = experiment: NCI 60 screen, SF-295; assay type: cell-based; conditions: Homo sapiens, CNS
Procedure: as §1

SF-539 = experiment: NCI 60 screen, SF-539; assay type: cell-based; conditions: Homo sapiens, CNS
Procedure: as §1

SNB-19 = experiment: NCI 60 screen, SNB-19; assay type: cell-based; conditions: Homo sapiens, CNS
Procedure: as §1

SNB-75 = experiment: NCI 60 screen, SNB-75; assay type: cell-based; conditions: Homo sapiens, CNS
Procedure: as §1

U251 = experiment: NCI 60 screen, U251; assay type: cell-based; conditions: Homo sapiens, U-251, CNS
Procedure: as §1

LOX IMVI = experiment: NCI 60 screen, LOX IMVI; assay type: cell-based; conditions: Homo sapiens, Melanoma
Procedure: as §1

MALME-3M = experiment: NCI 60 screen, MALME-3M; assay type: cell-based; conditions: Homo sapiens, Melanoma
Procedure: as §1

MDA-MB-435 = experiment: NCI 60 screen, MDA-MB-435; assay type: cell-based; conditions: Homo sapiens, Melanoma
Procedure: as §1

SK-MEL-2 [1] = experiment: NCI 60 screen, SK-MEL-2 (first line); assay type: cell-based; conditions: Homo sapiens; Melanoma, SK-MEL-2 (first of two lines so named, r37)
Procedure: as §1

SK-MEL-2 [2] = experiment: NCI 60 screen, SK-MEL-2 (second line); assay type: cell-based; conditions: Homo sapiens; Melanoma, SK-MEL-2 (second of two lines so named, r38)
Procedure: as §1

SK-MEL-5 = experiment: NCI 60 screen, SK-MEL-5; assay type: cell-based; conditions: Homo sapiens, Melanoma
Procedure: as §1

UACC-257 = experiment: NCI 60 screen, UACC-257; assay type: cell-based; conditions: Homo sapiens, Melanoma
Procedure: as §1

UACC-62 = experiment: NCI 60 screen, UACC-62; assay type: cell-based; conditions: Homo sapiens, Melanoma
Procedure: as §1

IGROV1 = experiment: NCI 60 screen, IGROV1; assay type: cell-based; conditions: Homo sapiens, IGROV-1, Ovarian
Procedure: as §1

OVCAR-3 = experiment: NCI 60 screen, OVCAR-3; assay type: cell-based; conditions: Homo sapiens, Ovarian
Procedure: as §1

OVCAR-4 = experiment: NCI 60 screen, OVCAR-4; assay type: cell-based; conditions: Homo sapiens, Ovarian
Procedure: as §1

OVCAR-5 = experiment: NCI 60 screen, OVCAR-5; assay type: cell-based; conditions: Homo sapiens, Ovarian
Procedure: as §1

OVCAR-8 = experiment: NCI 60 screen, OVCAR-8; assay type: cell-based; conditions: Homo sapiens, Ovarian
Procedure: as §1

NCI/ADR-RES = experiment: NCI 60 screen, NCI/ADR-RES; assay type: cell-based; conditions: Homo sapiens, Ovarian
Procedure: as §1

SK-OV-3 = experiment: NCI 60 screen, SK-OV-3; assay type: cell-based; conditions: Homo sapiens, Ovarian
Procedure: as §1

786-0 = experiment: NCI 60 screen, 786-0; assay type: cell-based; conditions: Homo sapiens, Renal
Procedure: as §1

A498 = experiment: NCI 60 screen, A498; assay type: cell-based; conditions: Homo sapiens, Renal
Procedure: as §1

ACHN = experiment: NCI 60 screen, ACHN; assay type: cell-based; conditions: Homo sapiens, Renal
Procedure: as §1

CAKI-1 = experiment: NCI 60 screen, CAKI-1; assay type: cell-based; conditions: Homo sapiens, Renal
Procedure: as §1

RXF393 = experiment: NCI 60 screen, RXF393; assay type: cell-based; conditions: Homo sapiens, RXF 393, Renal
Procedure: as §1

SN12C = experiment: NCI 60 screen, SN12C; assay type: cell-based; conditions: Homo sapiens, Renal
Procedure: as §1

TK-10 = experiment: NCI 60 screen, TK-10; assay type: cell-based; conditions: Homo sapiens, Renal
Procedure: as §1

UO-31 = experiment: NCI 60 screen, UO-31; assay type: cell-based; conditions: Homo sapiens, Renal
Procedure: as §1

PC-3 = experiment: NCI 60 screen, PC-3; assay type: cell-based; conditions: Homo sapiens, Prostatic
Procedure: as §1

DU-145 = experiment: NCI 60 screen, DU-145; assay type: cell-based; conditions: Homo sapiens, Prostatic
Procedure: as §1

MCF7 = experiment: NCI 60 screen, MCF7; assay type: cell-based; conditions: Homo sapiens, Breast
Procedure: as §1

MDA-MB-231/ATCC = experiment: NCI 60 screen, MDA-MB-231/ATCC; assay type: cell-based; conditions: Homo sapiens, Breast
Procedure: as §1

HS 578T = experiment: NCI 60 screen, HS 578T; assay type: cell-based; conditions: Homo sapiens, Breast
Procedure: as §1

BT-549 = experiment: NCI 60 screen, BT-549; assay type: cell-based; conditions: Homo sapiens, Breast
Procedure: as §1

T-47D = experiment: NCI 60 screen, T-47D; assay type: cell-based; conditions: Homo sapiens, T47D, Breast
Procedure: as §1

MDA-MB-468 = experiment: NCI 60 screen, MDA-MB-468; assay type: cell-based; conditions: Homo sapiens, Breast
Procedure: as §1

Q: For `O=C(Cc1ccc(/C=C/C(=O)c2ncc[nH]2)cc1)Nc1c(F)c(F)c(F)c(F)c1F` [Compound 35, (E)-2-(4-(3-(1H-imidazol-2-yl)-3-oxoprop-1-en-1-yl)phenyl)-N-(perfluorophenyl)acetamide], which melting point is on record?
A: 235 °C

Q: Which melting point does the source give for `Cn1ccnc1C(=O)/C=C/c1ccc(CC(=O)Nc2ccc(C(F)(F)F)cc2)cc1` [Compound 26, (E)-2-(4-(3-(1-methyl-1H-imidazol-2-yl)-3-oxoprop-1-en-1-yl)phenyl)-N-(4-(trifluoromethyl)phenyl) acetamide] here?
A: 222 to 226 °C

Q: For `Cn1ccnc1C(=O)/C=C/c1ccc(CC(=O)NC2CCCCC2)cc1` [Compound 29, (E)-N-cyclohexyl-2-(4-(3-(1-methyl-1-H-imidazol-2-yl)-3-oxoprop-1-en-1-yl)phenyl) acetamide], which melting point is on record?
A: 182.5 °C

Q: What does the source list for `Cc1ccc(NC(=O)Cc2ccc(/C=C/C(=O)c3ncc[nH]3)cc2)cc1` [Compound 20, (E)-2-(4-(3-(1H-imidazol-2-yl)-3-oxoprop-1-en-1-yl)phenyl)-N-(p-tolyl)acetamide]?
A: GI50 (CCRF-CEM): 4.67 µM; GI50 (HL-60(TB)): 5.88 µM; GI50 (MOLT-4): 5.33 µM; GI50 (RPMI-8226): 1.79 µM; GI50 (SR): 0.99 µM; GI50 (A549/ATCC): 9.14 µM; GI50 (EKVX): 1.35 µM; GI50 (HOP-62): 5.24 µM; GI50 (HOP-92): 1.85 µM; GI50 (NCI-H226): 9.59 µM; GI50 (NCI-H23): 5.85 µM; GI50 (NCI-322M): 6.06 µM; GI50 (NCI-460): 6.32 µM; GI50 (NCI-H522): 4.54 µM; GI50 (COLO 205): 7.27 µM; GI50 (HCC-2998): 6.73 µM; GI50 (HCT-116): 3.28 µM; GI50 (HCT15): 2.01 µM; GI50 (HT29): 0.955 µM; GI50 (KM12): 3.09 µM; GI50 (SW-620): 5.22 µM; GI50 (SF-268): 5.32 µM; GI50 (SF-295): 7.9 µM; GI50 (SF-539): 4.76 µM; GI50 (SNB-19): 6.65 µM; GI50 (SNB-75): 7 µM; GI50 (U251): 1.59 µM; GI50 (LOX IMVI): 1.29 µM; GI50 (MALME-3M): 25 µM; GI50 (MDA-MB-435): 5.68 µM; GI50 (SK-MEL-2 [1]): 18.1 µM; GI50 (SK-MEL-2 [2]): 11.5 µM; GI50 (SK-MEL-5): 18.3 µM; GI50 (UACC-257): 25 µM; GI50 (UACC-62): 8.29 µM; GI50 (IGROV1): 6.47 µM; GI50 (OVCAR-3): 1.67 µM; GI50 (OVCAR-4): 10.4 µM; GI50 (OVCAR-5): 6.84 µM; GI50 (OVCAR-8): 7.24 µM; GI50 (NCI/ADR-RES): 6.73 µM; GI50 (SK-OV-3): 12.8 µM; GI50 (786-0): 4.28 µM; GI50 (A498): 19.9 µM; GI50 (ACHN): 6.51 µM; GI50 (CAKI-1): 9.63 µM; GI50 (RXF393): 7.68 µM; GI50 (SN12C): 5.91 µM; GI50 (TK-10): 7.93 µM; GI50 (UO-31): 3.01 µM; GI50 (PC-3): 7.1 µM; GI50 (DU-145): 4.56 µM; GI50 (MCF7): 1.15 µM; GI50 (MDA-MB-231/ATCC): 9.46 µM; GI50 (HS 578T): 13.6 µM; GI50 (BT-549): 6.42 µM; GI50 (T-47D): 6.47 µM; GI50 (MDA-MB-468): 3.3 µM; melting point: 218.5 °C

Q: For `O=C(Cc1ccc(/C=C/C(=O)c2ncc[nH]2)cc1)Nc1cc(C(F)(F)F)cc(C(F)(F)F)c1` [Compound 37, (E)-2-(4-(3-(1H-imidazol-2-yl)-3-oxoprop-1-en-1-yl)phenyl)-N-(3,5-bis(trifluoromethyl)phenyl) acetamide], which melting point is on record?
A: 243 °C
